# According to patent US20190284536A1, “EPITHELIAL TUMOR CELL CULTURES” (Beijing Percans Oncology Co., Ltd., priority 2016, published 2019):
# Tested on: human epithelial tumor cells
# Details: DMEM/F12 based culture medium supplemented with BSA vs without; FIG. 10
# Experimental: DF12: DMEM/F12 based culture medium. DF12+BSA: DMEM/12 based culture medium supplemented with BSA. Cell proliferation was measured by EdU incorporation. Error bars represent standard deviation (SD).
substance,measurement,value
bovine serum albumin [BSA],growth of human epithelial tumor cells (cell proliferation by EdU incorporation),supports the growth
